The test system of assay [1] is Non-transformed plants. Briefly: NAM spray of non-transformed tobacco plants. In kind it is in vivo. The following applies: 200 ug/mL NAM with 0.1% Tween 20, sprayed to runoff. An excerpt:
Transformed tobacco plants containing the pJH 121 construct described above are recovered and tested using standard analysis to determine the presence of the inserted vector. […] Plants were sprayed to runoff using a pressurized sprayer. […] Non-transformed plants are unaffected by the treatment.

Assay [2] relates to Transformed Brassica napus plants containing the construct pJH 121. In words: NAM spray of transformed Brassica napus plants containing pJH121. In kind it is in vivo. The conditions noted are these: 200 ug/mL NAM with 0.1% Tween 20, sprayed to runoff at three-four leaf stage; 25 days after spraying. An excerpt:
(§1) Transformed Brassica napus plants containing the construct pJH 121 described above are recovered and tested using standard analysis to determine the presence of the inserted vector. […] Plants were sprayed to runoff using a pressurized sprayer.

The next assay deals with non-transgenic varieties. In words: NAM spray of non-transgenic Brassica napus varieties. The conditions noted are these: 200 ug/mL NAM with 0.1% Tween 20, sprayed to runoff; 25 days after spraying. In kind it is in vivo.
Excerpt: as §1

Assay [3] has as its system Transformed Brassica napus plants containing the construct pJH 125 (35S oncogene 2). In words: NAM spray of transformed Brassica napus plants containing pJH125. In kind it is in vivo. The conditions noted are these: 200 ug/mL NAM with 0.1% Tween 20, sprayed to runoff. An excerpt: (§2) Transformed Brassica napus plants containing the construct pJH 125 (35S oncogene 2) described above are recovered and tested using standard analysis to determine the presence of the inserted vector. […] Plants were sprayed to runoff using a pressurized sprayer. […] Non-transformed plants are unaffected by the treatment.

In assay [4] the test system is Non-transformed plants. Briefly: NAM spray of non-transformed Brassica napus plants. Format: in vivo. The following applies: 200 ug/mL NAM with 0.1% Tween 20, sprayed to runoff.
Excerpt: as §2

In assay [5] the test system is plants from JH 2984 and JH 2973 transformation events (pJH 125). In words: NAM as scorable marker agent in segregating populations JH 2984 and JH 2973. Format: in vivo, Brassica napus. The conditions noted are these: NAM 1 mg/mL at the 2-3 leaf stage; 24 hours after application. An excerpt:
In this example, 20 plants from JH 2984 and JH 2973 transformation events were planted. These transgenic varieties were segregating 3:1 for the inserted plant transformation vector pJH 125. […] These plants were subjected to PCR analysis for the presence of the transformation vector.

The test system of assay [6] is Transgenic seedlings from JH2973 and JH2984 (pJH 125). Briefly: In vitro seed germination in the presence of NAM and NPA, transgenic seedlings. Format: in vivo, Brassica napus. The text has this: (§3) Oncogene 2 can be used as a selectable marker in seed germination and embryo rescue in vitro assays, allowing for an even earlier determination of the presence of the transformation vector in segregating populations. […] The in vitro assay reduces the time and physical space (e.g. number of plants in growth chambers or under cultivation) required to identify homozygous transgenic lines, and the embryo rescue method allows selection and recovery of transformed seedlings which reduces generation to generation cycle time a breeding program.
(§4) Non-transformed segregants grew normally. […] The presence of the transformation vector in these plants was confirmed as above.

For assay [7], the system named is Non-transformed segregants. Briefly: In vitro seed germination in the presence of NAM and NPA, non-transformed segregants. Format: in vivo, Brassica napus. The conditions noted are these: germinated in vitro in the presence of NAM and the auxin transport inhibitor NPA.
Excerpt: as §3, §4

Assay [8] relates to transgenic plants expressing the oncogene 2. In words: Spray screen for transgenic plants expressing the oncogene 2. In kind it is in vivo. An excerpt:
A simple procedure is provided to screen for transgenic plants expressing the oncogene 2. […] Plants which have been affected are selected.

Assay [9] deals with Plants without the oncogene 2. Briefly: Spray screen, plants without the oncogene 2. Format: in vivo. The following applies: sprayed with formulated mixture. As to the method:
A simple procedure is provided to screen for transgenic plants expressing the oncogene 2. Plant populations are sprayed with the formulated mixture of napthalene acetamide. […] Plants without the oncogene 2 are unaffected. Plants which have been affected are selected. These recover within 72 hours and continue to grow and set seed. This phenotypic response is transmitted to subsequent generations.

The subject of assay [10] is Brassica napus hypocotyl explants (AG019, altered oil profiles). In words: Brassica napus transformation, NAA in callusing and recovery media. The conditions noted are these: NAA added to callusing and recovery media; Brassica napus with altered oil profiles. In kind it is cell-based. As to the method:
After co-cultivation, the cells are […] to callusing and recovery media for 7 days. Explants are then placed on selection medium containing macro and micro nutrients, vitamins and growth regulators which induce shoot formation. The selection medium also contains a bacteriocide, for example carbenicillin. Preferably, it also contains a selection agent. The cells are grown on the selection medium until shoots (putative transformants) develop. […] To enhance regeneration, any shoots which develop are transferred on a regular basis to fresh selection media. Plantlets are placed on a shoot elongation media and finally a rooting media.
A single colony of Agrobacterium containing the plant transformation vector construct is transferred to AB minimal medium (Watson et al., 1975) for 48 hr at 28° C., which gives at approx. density of 6×10^8 cfu/mL. Hypocotyls are harvested from the germinated seeds and transferred to the Pre-Culture medium (MMOM, 3% (w/v) sucrose, 5.0 mg/L BAP, 0.7% (w/v) agar, and NAA 0.1 mg/L, pH 5.8) and incubated for 3 days under the TC conditions described above. Hypocotyl explants are then transferred from the Pre-Culture medium to the AB minimal medium containing the Agrobacterium strain of interest and incubated for at least 2 min. […]

The values below come from patent US6753459B2, “Transgenic plants and methods for production thereof” (National Research Council of Canada, priority 1998, dated 2004).

Take `NC(=O)Cc1cccc2ccccc12` [NAM, napthalene acetamide]: the “effect of treatment on non-transformed plants” value in the assay with Non-transformed plants [1] and in the assay on Non-transformed plants [4] was “unaffected” each time. Moreover, the “growth of transgenic plants” value in assay [2] is on record as “remained stunted in growth”. Besides, the “growth of non-transgenic varieties” value with non-transgenic varieties is “grew normally and flowered”. Further, the “visual phenotype of transformed plants” value was “leaves are drooping and the leaf margins curling” in assay [3] (2 days after spraying); “leaves are twisted and the plant shows typical auxin toxicity” in assay [3] (within 5 days). Moreover, the “visual phenotype of putative transgenics (confirmed by PCR)” value in [5] is “twisted leaves”. For the same compound, in assay [6] (after transfer to non-selective media), the “recovery of putative transgenic seedlings” value was “recovered and grew normally”. Besides, in assay [6] (germinated in vitro in the presence of NAM and the auxin transport inhibitor NPA), the “phenotype of transgenic seedlings” value is “stunted seedlings, small cotyledons, stunted and swollen roots and callus at the root/shoot junction”. Moreover, in assay [7], the “growth of non-transformed segregants” value is reported as “grew normally”. In [8] (sprayed with formulated mixture, within 24 hours), the “visual phenotype of transgenic plants” value was “epinasty and obvious visual phenotypic changes”. Moreover, the “time to recovery of affected plants” value in assay [8] (sub-lethal spray, plants continue to grow and set seed) was no more than 72 h. In addition, in assay [9], the “effect on plants without the oncogene 2” value is given as “unaffected”.

Consider `O=C(O)Cc1cccc2ccccc12` [NAA, napthalene acetic acid], for which the “formation of transgenic shoots” value in assay [10] was “greatly increases the formation of transgenic shoots”.
